Assays:
Assay in all cases: relative viability (nuclei count vs DMSO), 5 days (fraction); higher = more cells survive
Tosedostat + Dasatinib = compound: CC(C)C[C@@H](C(=O)N[C@H](C(=O)OC1CCCC1)c1ccccc1)[C@H](O)C(=O)NO [Tosedostat] + Cc1nc(Nc2ncc(C(=O)Nc3c(C)cccc3Cl)s2)cc(N2CCN(CCO)CC2)n1 [Dasatinib] (partner 0.075 µM)
Procedure, shortened: (§1)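 Lung cancer cell lines in 1536-well plates got either a single drug or a fixed anchor-drug dose together with five library-drug doses (not always all listed) in √10 steps, by pin tool, on the day after seeding. Nuclei were counted after 5 days, and relative viability is the treated-to-vehicle ratio of nuclei counts. Values are medians of duplicate plates.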

[1] = compound: CC1=NN=C(O1)C2=NN=C(C=C2)N3CCC(CC3)OC4=C(C=CC(=C4)F)Cl + CC(=O)Nc1cccc(-n2c(=O)n(C3CC3)c(=O)c3c(Nc4ccc(I)cc4F)n(C)c(=O)c(C)c32)c1 [Trametinib] (partner 0.02 µM)
Procedure, shortened: as §1

[2] = compound: CC1=NN=C(O1)C2=NN=C(C=C2)N3CCC(CC3)OC4=C(C=CC(=C4)F)Cl + COc1cc2c(Oc3ccc(NC(=O)C4(C(=O)Nc5ccc(F)cc5)CC4)cc3F)ccnc2cc1OCCCN1CCOCC1 [Foretinib] (partner 0.25 µM)
Procedure, shortened: as §1

[3] = compound: CC1=NN=C(O1)C2=NN=C(C=C2)N3CCC(CC3)OC4=C(C=CC(=C4)F)Cl + CS(=O)(=O)N1CCN(Cc2cc3nc(-c4cccc5[nH]ncc45)nc(N4CCOCC4)c3s2)CC1 [Pictilisib] (partner 1 µM)
Procedure, shortened: as §1

## SW 1573
Tosedostat + Dasatinib; first compound 0.02 µM
  relative viability: 0.572
Tosedostat + Dasatinib; first compound 0.06325 µM
  relative viability: 0.36
Tosedostat + Dasatinib; first compound 0.2 µM
  relative viability: 0.368
Tosedostat + Dasatinib; first compound 0.6325 µM
  relative viability: 0.317
Tosedostat + Dasatinib; first compound 2 µM
  relative viability: 0.314
[1]; first compound 0.253 µM
  relative viability: 0.512
[1]; first compound 0.8 µM
  relative viability: 0.43
[1]; first compound 2.53 µM
  relative viability: 0.445
[1]; first compound 8 µM
  relative viability: 0.306
[2]; first compound 0.253 µM
  relative viability: 0.99
[2]; first compound 0.8 µM
  relative viability: 0.86
[2]; first compound 2.53 µM
  relative viability: 0.909
[2]; first compound 8 µM
  relative viability: 0.569
[3]; first compound 0.253 µM
  relative viability: 0.527
[3]; first compound 0.8 µM
  relative viability: 0.415
[3]; first compound 2.53 µM
  relative viability: 0.473
[3]; first compound 8 µM
  relative viability: 0.383

## NCI-H1648
[1]; first compound 0.253 µM
  relative viability: 0.442
[1]; first compound 0.8 µM
  relative viability: 0.43
[1]; first compound 2.53 µM
  relative viability: 0.405
[1]; first compound 8 µM
  relative viability: 0.479

## A549
[2]; first compound 0.253 µM
  relative viability: 0.746
[2]; first compound 0.8 µM
  relative viability: 0.545
[2]; first compound 2.53 µM
  relative viability: 0.464
[2]; first compound 8 µM
  relative viability: 0.53
[3]; first compound 0.253 µM
  relative viability: 0.406
[3]; first compound 0.8 µM
  relative viability: 0.255
[3]; first compound 2.53 µM
  relative viability: 0.319
[3]; first compound 8 µM
  relative viability: 0.234

## A-427
Tosedostat + Dasatinib; first compound 0.02 µM
  relative viability: 0.646
Tosedostat + Dasatinib; first compound 0.06325 µM
  relative viability: 0.762
Tosedostat + Dasatinib; first compound 0.2 µM
  relative viability: 0.733
Tosedostat + Dasatinib; first compound 0.6325 µM
  relative viability: 0.712
Tosedostat + Dasatinib; first compound 2 µM
  relative viability: 0.692
[1]; first compound 0.253 µM
  relative viability: 0.818
[1]; first compound 0.8 µM
  relative viability: 0.711
[1]; first compound 2.53 µM
  relative viability: 0.869
[1]; first compound 8 µM
  relative viability: 0.825
[2]; first compound 0.253 µM
  relative viability: 1.02
[2]; first compound 2.53 µM
  relative viability: 0.998
[2]; first compound 8 µM
  relative viability: 0.871
[3]; first compound 0.253 µM
  relative viability: 0.859
[3]; first compound 2.53 µM
  relative viability: 0.675
[3]; first compound 8 µM
  relative viability: 0.54

## NCI-H2009
Tosedostat + Dasatinib; first compound 0.02 µM
  relative viability: 0.279
Tosedostat + Dasatinib; first compound 0.06325 µM
  relative viability: 0.334
Tosedostat + Dasatinib; first compound 0.2 µM
  relative viability: 0.226
Tosedostat + Dasatinib; first compound 0.6325 µM
  relative viability: 0.267
Tosedostat + Dasatinib; first compound 2 µM
  relative viability: 0.24
[1]; first compound 0.253 µM
  relative viability: 0.257
[1]; first compound 0.8 µM
  relative viability: 0.23
[1]; first compound 2.53 µM
  relative viability: 0.233
[1]; first compound 8 µM
  relative viability: 0.174
[2]; first compound 0.253 µM
  relative viability: 0.711
[2]; first compound 0.8 µM
  relative viability: 0.667
[2]; first compound 2.53 µM
  relative viability: 0.644
[2]; first compound 8 µM
  relative viability: 0.636
[3]; first compound 0.253 µM
  relative viability: 0.711
[3]; first compound 0.8 µM
  relative viability: 0.618
[3]; first compound 2.53 µM
  relative viability: 0.659
[3]; first compound 8 µM
  relative viability: 0.637

## LCLC-97TM1
Tosedostat + Dasatinib; first compound 0.02 µM
  relative viability: 0.901
Tosedostat + Dasatinib; first compound 0.06325 µM
  relative viability: 0.988
Tosedostat + Dasatinib; first compound 0.2 µM
  relative viability: 0.811
Tosedostat + Dasatinib; first compound 0.6325 µM
  relative viability: 0.819
Tosedostat + Dasatinib; first compound 2 µM
  relative viability: 0.915
[1]; first compound 0.253 µM
  relative viability: 0.175
[1]; first compound 2.53 µM
  relative viability: 0.191
[1]; first compound 8 µM
  relative viability: 0.148
[2]; first compound 0.253 µM
  relative viability: 0.481
[2]; first compound 0.8 µM
  relative viability: 0.439
[2]; first compound 2.53 µM
  relative viability: 0.433
[2]; first compound 8 µM
  relative viability: 0.381
[3]; first compound 0.253 µM
  relative viability: 0.234
[3]; first compound 2.53 µM
  relative viability: 0.213
[3]; first compound 8 µM
  relative viability: 0.239

## NCI-H1792
Tosedostat + Dasatinib; first compound 0.02 µM
  relative viability: 0.777
Tosedostat + Dasatinib; first compound 0.06325 µM
  relative viability: 0.756
Tosedostat + Dasatinib; first compound 0.2 µM
  relative viability: 0.743
Tosedostat + Dasatinib; first compound 0.6325 µM
  relative viability: 0.79
Tosedostat + Dasatinib; first compound 2 µM
  relative viability: 0.691
[1]; first compound 0.253 µM
  relative viability: 0.359
[1]; first compound 0.8 µM
  relative viability: 0.398
[1]; first compound 2.53 µM
  relative viability: 0.647
[1]; first compound 8 µM
  relative viability: 0.487
[3]; first compound 0.253 µM
  relative viability: 0.205
[3]; first compound 0.8 µM
  relative viability: 0.314
[3]; first compound 2.53 µM
  relative viability: 0.375
[3]; first compound 8 µM
  relative viability: 0.411

## LCLC-103H
Tosedostat + Dasatinib; first compound 0.02 µM
  relative viability: 0.49
Tosedostat + Dasatinib; first compound 0.06325 µM
  relative viability: 0.523
Tosedostat + Dasatinib; first compound 0.2 µM
  relative viability: 0.503
Tosedostat + Dasatinib; first compound 0.6325 µM
  relative viability: 0.366
Tosedostat + Dasatinib; first compound 2 µM
  relative viability: 0.341
[1]; first compound 0.253 µM
  relative viability: 0.533
[1]; first compound 0.8 µM
  relative viability: 0.522
[1]; first compound 2.53 µM
  relative viability: 0.489
[1]; first compound 8 µM
  relative viability: 0.431
[2]; first compound 0.253 µM
  relative viability: 0.579
[2]; first compound 0.8 µM
  relative viability: 0.596
[2]; first compound 2.53 µM
  relative viability: 0.494
[2]; first compound 8 µM
  relative viability: 0.582
[3]; first compound 0.253 µM
  relative viability: 0.556
[3]; first compound 0.8 µM
  relative viability: 0.479
[3]; first compound 2.53 µM
  relative viability: 0.567
[3]; first compound 8 µM
  relative viability: 0.473

## LOU-NH91
Tosedostat + Dasatinib; first compound 0.02 µM
  relative viability: 0.6
Tosedostat + Dasatinib; first compound 0.06325 µM
  relative viability: 0.584
Tosedostat + Dasatinib; first compound 0.2 µM
  relative viability: 0.568
Tosedostat + Dasatinib; first compound 0.6325 µM
  relative viability: 0.51
Tosedostat + Dasatinib; first compound 2 µM
  relative viability: 0.42
[1]; first compound 0.8 µM
  relative viability: 0.722
[1]; first compound 2.53 µM
  relative viability: 0.744
[1]; first compound 8 µM
  relative viability: 0.77
[2]; first compound 0.253 µM
  relative viability: 0.896
[2]; first compound 0.8 µM
  relative viability: 0.847
[2]; first compound 2.53 µM
  relative viability: 0.927
[2]; first compound 8 µM
  relative viability: 0.9
[3]; first compound 0.8 µM
  relative viability: 0.519
[3]; first compound 2.53 µM
  relative viability: 0.55
[3]; first compound 8 µM
  relative viability: 0.499

## BEN
Tosedostat + Dasatinib; first compound 0.02 µM
  relative viability: 0.348
Tosedostat + Dasatinib; first compound 0.06325 µM
  relative viability: 0.348
Tosedostat + Dasatinib; first compound 0.2 µM
  relative viability: 0.39
Tosedostat + Dasatinib; first compound 0.6325 µM
  relative viability: 0.446
Tosedostat + Dasatinib; first compound 2 µM
  relative viability: 0.344
[1]; first compound 0.253 µM
  relative viability: 1.1
[1]; first compound 0.8 µM
  relative viability: 1.12
[1]; first compound 2.53 µM
  relative viability: 1.03
[1]; first compound 8 µM
  relative viability: 1.17
[2]; first compound 0.253 µM
  relative viability: 0.679
[2]; first compound 0.8 µM
  relative viability: 0.7
[2]; first compound 2.53 µM
  relative viability: 0.665
[2]; first compound 8 µM
  relative viability: 0.541
[3]; first compound 0.253 µM
  relative viability: 0.571
[3]; first compound 0.8 µM
  relative viability: 0.62
[3]; first compound 2.53 µM
  relative viability: 0.68
[3]; first compound 8 µM
  relative viability: 0.584

## NCI-H1755
Tosedostat + Dasatinib; first compound 0.02 µM
  relative viability: 0.436
Tosedostat + Dasatinib; first compound 0.06325 µM
  relative viability: 0.403
Tosedostat + Dasatinib; first compound 0.2 µM
  relative viability: 0.444
Tosedostat + Dasatinib; first compound 0.6325 µM
  relative viability: 0.42
Tosedostat + Dasatinib; first compound 2 µM
  relative viability: 0.361
[1]; first compound 0.253 µM
  relative viability: 0.619
[1]; first compound 0.8 µM
  relative viability: 0.659
[1]; first compound 2.53 µM
  relative viability: 0.645
[1]; first compound 8 µM
  relative viability: 0.643
[2]; first compound 0.253 µM
  relative viability: 0.641
[2]; first compound 0.8 µM
  relative viability: 0.719
[2]; first compound 2.53 µM
  relative viability: 0.731
[2]; first compound 8 µM
  relative viability: 0.647
[3]; first compound 0.253 µM
  relative viability: 0.382
[3]; first compound 0.8 µM
  relative viability: 0.383
[3]; first compound 2.53 µM
  relative viability: 0.398
[3]; first compound 8 µM
  relative viability: 0.387

From the supplement of paper PMC10307832
